From patent US20250361234A1 (NICO THERAPEUTICS, INC., priority 2022, published 2025)

Molecular target: T1, full-length SARM1 (FL-SARM1) (Homo sapiens, UniProt Q6SZW1)
T1 sequence (Q6SZW1 28-724): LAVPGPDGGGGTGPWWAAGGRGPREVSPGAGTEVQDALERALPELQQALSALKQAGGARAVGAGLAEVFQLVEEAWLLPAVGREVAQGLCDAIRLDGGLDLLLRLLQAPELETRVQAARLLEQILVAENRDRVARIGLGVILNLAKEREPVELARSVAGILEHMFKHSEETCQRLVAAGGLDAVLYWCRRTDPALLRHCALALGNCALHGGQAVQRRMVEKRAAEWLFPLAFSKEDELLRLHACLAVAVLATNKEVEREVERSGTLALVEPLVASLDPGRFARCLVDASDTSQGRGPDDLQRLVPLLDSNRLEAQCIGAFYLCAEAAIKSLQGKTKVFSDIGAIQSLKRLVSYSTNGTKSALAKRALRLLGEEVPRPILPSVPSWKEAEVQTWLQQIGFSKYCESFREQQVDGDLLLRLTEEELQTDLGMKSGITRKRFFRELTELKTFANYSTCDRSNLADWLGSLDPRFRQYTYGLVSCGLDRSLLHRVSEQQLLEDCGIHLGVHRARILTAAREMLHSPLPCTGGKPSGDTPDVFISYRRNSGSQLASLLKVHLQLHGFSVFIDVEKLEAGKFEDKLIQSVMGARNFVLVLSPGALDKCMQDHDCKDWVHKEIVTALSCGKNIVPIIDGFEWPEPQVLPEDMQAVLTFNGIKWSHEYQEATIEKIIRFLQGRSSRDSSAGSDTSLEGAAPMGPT
Assay: FL-SARM1 cellular lysate assay (NAD/NADH-Glo readout of remaining NAD+)
Conditions: SARM1 cellular lysate from transfected HEK293T cells, NAD+ and NMN, 11 point curve

Row | Structure (SMILES) | IC50 (Activity (μM)) [µM] | IC50 (Activity) [µM]
1 | Cc1ccc(NC(=O)N2C3CCCC2C3)cc1-c1cncc(C#N)c1 [Example 72, N-(3-(5-cyanopyridin-3-yl)-4-methylphenyl)-6-azabicyclo[3.1.1]heptane-6-carboxamide] | 0.1 | 0.0001 to 1
2 | Cc1nnc([C@]23C[C@H](C)C[C@H](C2)N3C(=O)Nc2ccc(C)c(-c3cncc(F)c3)c2)o1 (single isomer, unassigned) [Example 128, cis-N-(3-(5-fluoropyridin-3-yl)-4-methylphenyl)-3-methyl-1-(5-methyl-1,3,4-oxadiazol-2-yl)-6-azabicyclo[3.1.1]heptane-6-carboxamide] | 11.6 | > 10
3 | O=C(Nc1ccc(CCF)c(-c2cncc(F)c2)c1)N1C2CCCC1C2 [Example 28, N-(4-(2-fluoroethyl)-3-(5-fluoropyridin-3-yl)phenyl)-6-azabicyclo[3.1.1]heptane-6-carboxamide] | 0.8 | 0.0001 to 1
4 | Cc1ccc(NC(=O)N2C[C@@H](C)CC[C@H]2C)cc1-c1cncc(F)c1 (racemic) [Example 8, cis-N-(3-(5-fluoropyridin-3-yl)-4-methylphenyl)-2,5-dimethylpiperidine-1-carboxamide] | 2.6 | 1 to 10
5 | CO[C@@H]1CC[C@H]2CC1N2C(=O)Nc1ccc(C)c(-c2cncc(F)c2)c1 [Example 7, trans-N-(3-(5-fluoropyridin-3-yl)-4-methylphenyl)-2-methoxy-6-azabicyclo[3.1.1]heptane-6-carboxamide] | 2 | 1 to 10
6 | Cc1ccc(NC(=O)[C@H]2C[C@@](C#N)(C3CC3)C2)cc1-c1cncc(F)c1 [Example 106, trans-3-cyano-3-cyclopropyl-N-[3-(5-fluoropyridin-3-yl)-4-methylphenyl]cyclobutane-1-carboxamide] | 0.6 | 0.0001 to 1
7 | COc1c(F)cncc1-c1cc(NC(=O)N2C3CCCC2C3)ccc1C [Example 90, N-(3-(5-fluoro-4-methoxypyridin-3-yl)-4-methylphenyl)-6-azabicyclo[3.1.1]heptane-6-carboxamide] | 1.9 | 1 to 10
8 | Cc1ccc(NC(=O)N2C3CCCC2C3)cc1-c1cncc(C(F)(F)F)c1 [Example 116, N-[4-methyl-3-[5-(trifluoromethyl)pyridin-3-yl]phenyl]-6-azabicyclo[3.1.1]heptane-6-carboxamide] | 0.1 | 0.0001 to 1
9 | Cc1ccc(NC(=O)N2C3CC(=O)CC2C3)cc1-c1cncc(F)c1 [Example 38, N-(3-(5-fluoropyridin-3-yl)-4-methylphenyl)-3-oxo-6-azabicyclo[3.1.1]heptane-6-carboxamide] | 2.3 | 1 to 10
